Data reported in patent publication US11504369B2, “Cytosine-based TET enzyme inhibitors” (President and Trustees of Bates College, priority 2019, dated 2022).
“Also recorded” adds a separate entry of the source.

Experiments:
[1] = molecular target: T1, TET1 (Homo sapiens, UniProt Q8NFU7); test: Chemiluminescence ELISA of TET1-mediated oxidation of methylated DNA; type: biochemical; settings: for TET1 inhibition (in words): compound at 100 μM in ELISA
T1 construct: purchased Bioscience 50651
Experimental: To determine whether cytosine analogs inhibited TET-mediated oxidation of methylated DNA, the amount of hydroxymethylcytosine in reactions containing TET enzyme alone or TET enzyme and a cytosine analog were determined using chemiluminescence ELISA assays.
Procedure adapted from manual (Bioscience; TET1: 50651, TET2: 50652). Prepare TBST buffer (1× TBS, pH 8.0, containing 0.05% Tween-20). Dilute 4.0× TET Assay Buffer (TAB) to 1.5× TAB and 1.0× TAB evenly with diluted water. Thaw and dilute (5.0 ng/μl for TET1 and 10 ng/μl for TET2) TET enzyme from kit with 1.0× TAB. Dilute primary antibody 100-fold with blocking buffer. Diluted secondary antibody 1000-fold with blocking buffer. Dilute DMSO inhibitor solutions with 1.0× TAB to wanted concentration (ensure solutions are 5% DMSO). To 96-well plate provided, add 200 μl TBST buffer to each well and incubate at room temperature for 15 min. Remove TBST buffer and add 20 μl 1.5× TAB, 10 μl inhibitor solution, 20 μl diluted TET to each well. For controls, add 10 μl 5% DMSO solution and 20 μl 1.0× TAB. Incubate at room temperature for 2 h. Remove reaction solution and wash 3× with TBST buffer (200, 200, and 100 μl). Add 100 μl […] diluted primary antibody and shake at room temperature for 1 h. Remove diluted primary antibody and wash 3× with TBST buffer (200, 200, and 100 μl). Add 100 μl blocking buffer to each well and shake at room temperature for 10 min. Remove blocking buffer. Add 100 μl diluted secondary antibody. Shake at room temperature for 30 min. Remove diluted secondary antibody and wash 3× with TBST buffer (200, 200, and 100 μl). Add 100 μl blocking buffer to each well and shake at room temperature for 10 min. Remove blocking buffer. Combine horseradish peroxidase (HRP) substrate A and HRP substrate B at 1:1 ratio. Add 100 μl of HRP solution to each well. Immediately, read chemiluminescence (BioTek Synergy 2 plate reader).

[2] = system: DNMT3a; test: Inhibitory assay for DNMT3a; type: biochemical; settings: concentration of 500 μM
[3] = system: HT22 cells; test: Whole genome bisulfite sequencing in HT22 cells; type: cell-based, mouse; settings: 10 μM, 24 hours
Experimental: Whole genome bisulfite sequencing in HT22 cells was performed. […] Generally, the genome was broken into windows each containing 25 CpGs, and an analysis was performed to determine differentially methylated regions. […] Additionally, the differentially methylated regions (DMRs) were highly associated with DMRs detected for those Tet gene deficient cells/tissue.
HT-22 cells were provided by David Schubert at the Salk Institute (San Diego, Calif.). Cells were cultured in Dulbecco's Modified Eagle Medium (Life Technologies, Carlsbad, Calif.) supplemented with 10% FBS, 100 U/ml penicillin, and 100 μg/ml streptomycin (Life Technologies, Carlsbad, Calif.) at 37° C. and 5% CO2. […]
Cells were lysed and gDNA was extracted (Qiagen, DNeasy), bisulfite converted (Accel-NGS Methyl-Seq DNA Library, Swift), and sequenced (Hudson Alpha Discovery) on the Illumina platform (HiSeq_X10, paired end, 150 bp, 500 million reads per sample). Reads were QC'd by FastQC (v0.11.5), filtered by quality (average quality score <20), Illumina adapters removed, and sequencing primers trimmed using Trim_Galore! […] The filtered and trimmed reads were then mapped to the mouse genome (mm10), deduplicated, and CpG methylation levels extracted using Bismark (v0.19.0). Altered CpG methylation was determined by dividing the mouse genome into ˜850,000 windows, each containing 25 CpG sites. […]

[4] = molecular target: T2, TET2 (Homo sapiens, UniProt Q6N021); test: Chemiluminescence ELISA of TET2-mediated oxidation of methylated DNA; type: biochemical; settings: dose-response
T2 construct: purchased Bioscience 50652
Experimental: Procedure adapted from manual (Bioscience; TET1: 50651, TET2: 50652). Prepare TBST buffer (1× TBS, pH 8.0, containing 0.05% Tween-20). […] Dilute primary antibody 100-fold with blocking buffer. Diluted secondary antibody 1000-fold with blocking buffer. […] To 96-well plate provided, add 200 μl TBST buffer to each well and incubate at room temperature for 15 min. Remove TBST buffer and add 20 μl 1.5× TAB, 10 μl inhibitor solution, 20 μl diluted TET to each well. For controls, add 10 μl 5% DMSO solution and 20 μl 1.0× TAB. Incubate at room temperature for 2 h. Remove reaction solution and wash 3× with TBST buffer (200, 200, and 100 μl). Add 100 μl blocking buffer 53 μl diluted primary antibody and shake at room temperature for 1 h. Remove diluted primary antibody and wash 3× with TBST buffer (200, 200, and 100 μl). Add 100 μl blocking buffer to each well and shake at room temperature for 10 min. Remove blocking buffer. Add 100 μl diluted secondary antibody. Shake at room temperature for 30 min. […] Immediately, read chemiluminescence (BioTek Synergy 2 plate reader).

T1 sequence (Q8NFU7 whole entry): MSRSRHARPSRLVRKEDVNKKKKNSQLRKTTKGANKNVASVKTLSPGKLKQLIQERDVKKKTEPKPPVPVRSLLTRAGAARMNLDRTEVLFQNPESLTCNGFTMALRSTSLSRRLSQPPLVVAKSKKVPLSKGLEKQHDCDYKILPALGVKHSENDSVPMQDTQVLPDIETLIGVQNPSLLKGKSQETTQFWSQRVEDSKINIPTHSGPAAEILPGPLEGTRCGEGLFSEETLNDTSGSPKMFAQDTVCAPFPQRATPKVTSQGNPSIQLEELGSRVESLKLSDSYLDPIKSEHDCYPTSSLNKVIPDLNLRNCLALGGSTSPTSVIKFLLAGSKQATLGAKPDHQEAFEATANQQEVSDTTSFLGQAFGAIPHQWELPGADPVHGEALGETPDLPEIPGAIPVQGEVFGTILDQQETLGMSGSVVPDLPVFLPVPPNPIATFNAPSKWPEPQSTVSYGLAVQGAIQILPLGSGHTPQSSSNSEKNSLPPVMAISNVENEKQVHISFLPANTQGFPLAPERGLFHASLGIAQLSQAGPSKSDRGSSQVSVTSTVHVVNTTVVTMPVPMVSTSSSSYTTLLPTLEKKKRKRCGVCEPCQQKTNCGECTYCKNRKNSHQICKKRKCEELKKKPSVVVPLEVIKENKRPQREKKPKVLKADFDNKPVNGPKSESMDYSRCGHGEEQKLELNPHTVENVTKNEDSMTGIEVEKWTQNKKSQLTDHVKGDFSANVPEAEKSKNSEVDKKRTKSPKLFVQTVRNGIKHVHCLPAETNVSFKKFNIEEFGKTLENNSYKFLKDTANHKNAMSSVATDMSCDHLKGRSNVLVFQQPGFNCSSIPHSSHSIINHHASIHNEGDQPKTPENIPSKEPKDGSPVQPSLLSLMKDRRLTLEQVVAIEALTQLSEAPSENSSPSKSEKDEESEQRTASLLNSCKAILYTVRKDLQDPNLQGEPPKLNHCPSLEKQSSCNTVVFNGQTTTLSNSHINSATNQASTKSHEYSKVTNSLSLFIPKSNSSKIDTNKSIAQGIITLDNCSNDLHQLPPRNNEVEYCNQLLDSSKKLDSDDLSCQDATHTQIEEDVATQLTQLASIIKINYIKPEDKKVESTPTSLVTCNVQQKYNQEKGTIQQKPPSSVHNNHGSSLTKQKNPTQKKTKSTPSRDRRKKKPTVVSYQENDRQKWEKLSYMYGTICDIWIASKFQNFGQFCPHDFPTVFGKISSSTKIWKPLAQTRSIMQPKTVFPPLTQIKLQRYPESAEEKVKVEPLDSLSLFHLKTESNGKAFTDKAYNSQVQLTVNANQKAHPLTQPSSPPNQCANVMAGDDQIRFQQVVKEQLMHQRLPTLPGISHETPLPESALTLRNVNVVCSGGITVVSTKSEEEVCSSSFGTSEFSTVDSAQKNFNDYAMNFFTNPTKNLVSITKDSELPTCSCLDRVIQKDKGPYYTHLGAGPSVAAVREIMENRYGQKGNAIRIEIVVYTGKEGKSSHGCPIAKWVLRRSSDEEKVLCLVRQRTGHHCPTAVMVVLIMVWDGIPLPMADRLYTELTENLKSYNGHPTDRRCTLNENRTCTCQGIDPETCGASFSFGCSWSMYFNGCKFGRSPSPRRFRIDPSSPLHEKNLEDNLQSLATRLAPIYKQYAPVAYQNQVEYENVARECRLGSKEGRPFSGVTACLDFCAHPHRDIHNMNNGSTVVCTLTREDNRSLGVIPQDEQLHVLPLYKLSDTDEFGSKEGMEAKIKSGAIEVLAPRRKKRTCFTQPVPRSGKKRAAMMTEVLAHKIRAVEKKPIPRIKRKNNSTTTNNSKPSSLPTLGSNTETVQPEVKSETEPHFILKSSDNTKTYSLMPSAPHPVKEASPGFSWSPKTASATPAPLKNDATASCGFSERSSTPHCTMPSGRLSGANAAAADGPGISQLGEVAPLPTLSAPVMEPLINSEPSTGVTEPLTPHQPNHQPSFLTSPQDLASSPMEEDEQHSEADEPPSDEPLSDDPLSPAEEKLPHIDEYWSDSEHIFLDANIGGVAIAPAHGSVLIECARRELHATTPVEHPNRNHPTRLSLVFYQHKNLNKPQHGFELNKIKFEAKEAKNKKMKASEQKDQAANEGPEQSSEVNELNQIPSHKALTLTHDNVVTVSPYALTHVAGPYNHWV

**Q.** Which results are given for `Nc1nc(=O)n(-c2cccc(-c3ccccc3)c2)cc1Cl` [Bobcat339, 1-([1,1′-biphenyl]-3-yl)-4-amino-5-chloropyrimidin-2(1H)-one]?
**A.** TET1 inhibition (in words) [1]: significantly enhanced activity; TET1 inhibition (in words) ([1]; listed as 3-biphenyl): significantly increased TET1 inhibition; IC50 ([1]; dose-response, N=3): 33 µM; inhibition of DNMT3a [2]: failing to show substantial inhibition; also recorded: but not DNMT3a; differentially methylated regions (windows of 25 CpGs) [3]: A thousand such regions were observed, most of which are hypermethylated; global CpG methylation [3]: significant change in global CpG methylation

**Q.** Which “TET1 inhibition (in words)” value [1] does the source give for `Nc1nc(=O)n(-c2ccc(-c3ccccc3)cc2)cc1Cl` [Bobcat219, 1-([1,1′-biphenyl]-4-yl)-4-amino-5-chloropyrimidin-2(1H)-one] here?
**A.** significantly reduced TET1 inhibition

**Q.** With `Nc1nc(=O)n(-c2ccccc2)cc1Cl` [Bobcat216, 4-amino-5-chloro-1-phenylpyrimidin-2(1H)-one] as the molecule, how does the IC50 [4] read?
**A.** 98 µM

**Q.** For `Nc1nc(=O)n(-c2ccccc2-c2ccccc2)cc1Cl` [Bobcat337, 1-([1,1′-biphenyl]-2-yl)-4-amino-5-chloropyrimidin-2(1H)-one], which “TET1 inhibition (in words)” value [1] is on record?
**A.** significantly reduced TET1 inhibition
